Test in all cases: NCI tumour cell line growth inhibition, 48 h
Experiment [1] has as its system SNB-19 CNS.
The test system of experiment [2] is MALME-3M melanoma.
The test system of experiment [3] is U251 CNS.
For experiment [4], the system named is SR leukemia.
The test system of experiment [5] is SK-MEL-2 melanoma.
The test system of experiment [6] is UO-31 renal.
Experiment [7] has as its system KM12 colon.
Experiment [8] has as its system OVCAR-5 ovarian.
The test system of experiment [9] is NCI-H23 lung.
Experiment [10] relates to SK-MEL-28 melanoma.

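96-well plates; 48 h exposure; 5 concentrations. Endpoints by linear interpolation between flanking doses. Not reached: highest tested concentration assigned. Abbreviation: GI50, concentration required for 50% inhibition of growth. Definition used: TGI = concentration required for complete inhibition of growth.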

On to `Cn1c([N+](=O)[O-])cnc1/C=C1\Oc2cc(Cl)ccc2C1=O`, for which the GI50 is 1.64 µM in experiment [1]; 0.837 µM in [2]; 1.53 µM in [3]; 0.0393 µM in experiment [4]; 0.436 µM in experiment [5]; 0.25 µM in experiment [6]. The GI50 was 0.501 µM in experiment [7], 2.47 µM in experiment [8], 0.766 µM in experiment [9] and 0.721 µM in [10]. The TGI is 6.21 µM in experiment [1]; 4.13 µM in [2]; 5.07 µM in [3]; 0.344 µM in experiment [4]; 2 µM in [5]; 1.3 µM in experiment [6]. Further, the TGI came to 6.78 µM in experiment [7], 7.84 µM in [8], 4.47 µM in experiment [9] and 3.82 µM in experiment [10].

Turning to `OC(CN1CC1)C(O)CN1CC1` (stereo not given), the GI50 in [1], in experiment [2], in experiment [3], in experiment [4], in experiment [5] and in experiment [6] was > 50 µg/mL throughout. The GI50 in [7], in experiment [8], in experiment [9] and in experiment [10] was > 50 µg/mL throughout. Besides, the TGI in experiment [1], in experiment [2], in [3], in experiment [4], in experiment [5] and in experiment [6] was > 50 µg/mL in each case. Further, the TGI in experiment [7], in experiment [8], in experiment [9] and in experiment [10] was > 50 µg/mL each time.

As for `C#CCC(N)(CO)C(=O)O` (stereo not given), the TGI in experiment [1], in [2], in experiment [3], in [4], in experiment [5] and in experiment [6] was > 100 µM each time. The TGI in experiment [7], in [8], in experiment [9] and in experiment [10] was > 100 µM throughout.

Turning to `CCSc1nc(N)c2cn[nH]c2n1`, the GI50 in experiment [1] was 39.2 µM; in [2], 31.2 µM; in [3] it was 43.1 µM; in experiment [4] it was 7.63 µM; in experiment [5], 47.3 µM; in experiment [6], 49 µM. Besides, the GI50 in experiment [7] was 22 µM; in experiment [8] it was 21.8 µM; in experiment [9] it was 20.7 µM; in experiment [10], 33.2 µM. Further, the TGI in experiment [1] is > 100 µM; in experiment [2], 67 µM; in experiment [3], > 100 µM; in experiment [4], 39.6 µM; in [5] it was > 100 µM; in [6], > 100 µM. Also, the TGI is 59.6 µM in experiment [7], 63.1 µM in experiment [8], 58.9 µM in experiment [9] and > 100 µM in [10].

Consider `CC(=O)[CH-]C(C)=O.[CH2-]C.[CH2-]C.[Tl+3]`, for which the GI50 in [1], in experiment [2], in experiment [3], in experiment [4], in experiment [5] and in [6] was > 100 µM throughout. For the same compound, the GI50 in experiment [7], in experiment [8], in [9] and in experiment [10] was > 100 µM throughout. The TGI in experiment [1], in experiment [2], in experiment [3], in experiment [4], in experiment [5] and in experiment [6] was > 100 µM throughout. Further, the TGI in [7], in experiment [8], in experiment [9] and in experiment [10] was > 100 µM in each case.

Turning to `NC(=O)c1cccc(Nc2nccc(Nc3cccc(F)c3)n2)c1`, the GI50 in experiment [1] was 18.6 µM; in experiment [2], 10.3 µM; in [3], 14.3 µM; in [4], 7.1 µM; in [5] it was 7.37 µM; in [6], 4.49 µM. The GI50 in [7] was 7.27 µM; in experiment [8], 8.07 µM; in [9] it was 10.6 µM; in experiment [10], 8.71 µM. In addition, the TGI was > 25 µM in experiment [1]; > 25 µM in [2]; > 25 µM in experiment [3]; > 25 µM in [4]; 24.4 µM in experiment [5]; 22.3 µM in experiment [6]. The TGI in experiment [7], in experiment [8], in experiment [9] and in [10] was > 25 µM each time.

For the compound `Cc1ccc(S(=O)(=O)N/N=C(\c2nc3ccc([N+](=O)[O-])cc3[nH]c2=O)C(O)c2ccccc2Cl)cc1` (stereo not given), the TGI in experiment [1], in experiment [2], in experiment [3], in experiment [4], in experiment [5] and in experiment [6] was > 100 µM in each case. Also, the TGI in [7], in experiment [8], in experiment [9] and in [10] was > 100 µM in each case.

For the compound `CCOC(=O)C(=O)Nc1ccccc1C(F)(F)F`, the TGI in experiment [1], in [2], in experiment [3], in experiment [4], in experiment [5] and in experiment [6] was > 100 µM throughout. In addition, the TGI in [7], in experiment [8], in [9] and in experiment [10] was > 100 µM in each case.

As for `O=C1C(SCCO)=C(SCCO)C(=O)c2ccccc21`, the TGI in experiment [1] was found to be 3.23 µM; in experiment [2] it was 2.85 µM; in [3], 2.01 µM; in [4], 3.74 µM; in experiment [5], 4.24 µM; in experiment [6], 2.57 µM. The TGI in [7] was determined as 3.76 µM; in experiment [8], 2.81 µM; in experiment [9] it was 2.44 µM; in experiment [10] it was 3.18 µM.

The values above are taken from PubChem BioAssay (NCI).
